According to patent US20070117833A1, “Pharmaceutical compositions” (priority 2003, published 2007):

Key:
[1] = tested on: human rheumatoid synovial fibroblast; experiment: Spontaneous proliferation of human rheumatoid synovial fibroblast; assay type: cell-based
[2] = tested on: LPS induced fever; experiment: LPS fever (antipyretic effects); assay type: in vivo; details: rats, LPS 100 μg/kg s.c., p.o.; (95% limits)
Description: LPS fever. An injection of lypopolysaccharide (LPS) at a dose of 100 μg/kg in 5 ml/kg is given subcutaneously, and 2 hours later the temperature is measured using a rectal thermocouple. The rats are then placed into matched treatment groups according to their temperature responses. At time +4 hours, the mTOR inhibitor is administered p.o., and the final temperatures measured again at time +6 hours. The increase in temperature is calculated for each animal and the % inhibition determined for each treatment group compared to the vehicle control group.

[3] = tested on: IL-1β induced fever; experiment: IL-1 fever (antipyretic effects); assay type: in vivo; details: rats, 100 ng IL-1β i.v., p.o.
Description: IL-1 fever. Baseline temperature is measured and the rats placed into matched groups. The animals are dosed with the mTOR inhibitor (0.5, 2 or 4 mg/kg) p.o., and 30 minutes later given an injection of 100 ng IL-1β i.v. At time +4hours the final temperatures are measured and the % inhibition calculated as for LPS fever.

[4] = tested on: paw hyperalgesia; experiment: Anti-nociceptive activity in a model of inflammatory pain (intra-plantar yeast hyperalgesia); assay type: in vivo, male OFA rats
Description: Hyperalgesia is induced by an intra-plantar yeast injection and nociception measured by applying increasing pressure to the foot until the animal vocalizes or withdraws its foot from the pressure pad. The baseline pressure required to induce vocalization or withdrawal of the paw of male OFA rats is measured (−2 hours), followed by an intra-plantar injection of 100 μl of a 20% yeast suspension in water in the hind paw. The rats are treated orally with rapamycin or a derivative thereof (0.5, 2 or 4 mg/kg) or vehicle (saline) p.o. 2 hours later (0 hours), and the pressure test repeated 1 and 2 hours after dosing. The pressure required to induce vocalization or paw withdrawal of the compound-treated rats at these time-points is compared to that of vehicle-treated animals.

[5] = tested on: rheumatoid arthritis; experiment: Placebo-controlled, double blind clinical trial in RA patients who are methotrexate partial responders; assay type: in vivo, human; details: 6 mg/day in combination with background methotrexate
Description: 120 patients who are methotrexate partial responders are randomized in 2 groups to receive the mTOR inhibitor a) or placebo once daily for 12 weeks while continuing their background methotrexate treatment. There is an initial Screening visit (days −21 to −7) prior to the baseline. Disease status is assessed at the Screening and Baseline visits. During the 12 weeks treatment period the patients will be seen at Weeks 1, 2, 4, 8 and 12 and in the follow-up period at Weeks 14, 16, 20 and 24.
The criteria for inclusion of the patients in the trial: they must have a diagnosis of RA as defined by the […] revised ARA criteria with disease duration of no less than 6 months. All patients must have active RA as defined by the following parameters: • at least 6 swollen and 9 tender joints based on 58/60 joint count upon entry into the study • one of the following: erythrocyte sedimentation rate (ESR) >28 mm/hr, C-reactive protein (CRP)>1.5 mg/dL or morning stiffness>45 minutes
Patients must have received methotrexate for at least 16 weeks and must be on a stable dose (≧7.5 mg/week) and route of administration for at least 8 weeks prior to Day 1. […]
The primary efficacy outcome measure is the attainment of ACR20 criteria for improvement of RA and the proportion of patients in each group meeting the ACR20 criteria is determined. […]

[6] = 4-week toxicity study in rats; assay type: in vivo
Description: (§1) Rapamycin or derivatives thereof are well tolerated at dosages required for use in accordance with the present invention. For example, the NTEL for Compound A in a 4-week toxicity study is 0.5 mg/kg/day in rats and 1.5 mg/kg/day in monkeys.

[7] = 4-week toxicity study in monkeys; assay type: in vivo
Description: as §1

Row | SMILES | concentration at which maximal effects are observed ([1]; bromodeoxyuridine method) [pM] | suppression of the growth of synovial cells ([1]; by both criteria: bromodeoxyuridine incorporation and direct counting of viable cells) | concentration at which maximal effects are shown ([1]; direct cell counting) [nM] | ED50 inhibition of LPS-induced fever [2] | ED50 inhibition of IL-1β-induced fever [3] [mg/kg p.o.] | inhibition of paw hyperalgesia ([4]; 2 mg/kg p.o., 1 hour after dosing) | inhibition of paw hyperalgesia ([4]; 4 mg/kg p.o., 1 hour after dosing) | inhibition of paw hyperalgesia ([4]; 4 mg/kg p.o., 2 hours after dosing) | ACR Responders (in %) to ACR20 ([5]; Week 2) [%] | ACR Responders (in %) to ACR20 ([5]; Week 12) [%] | NTEL [6] [mg/kg/day] | NTEL [7] [mg/kg/day] | concentration at which suppression is maximal ([1]; synovial cell growth assessed by total intracellular ATP levels) [pM]
1 | CO[C@H]1C[C@@H]2CC[C@@H](C)[C@@](O)(O2)C(=O)C(=O)N2CCCC[C@H]2C(=O)O[C@H]([C@H](C)C[C@@H]2CC[C@@H](OCCO)[C@H](OC)C2)CC(=O)[C@H](C)/C=C(\C)[C@@H](O)[C@@H](OC)C(=O)[C@H](C)C[C@H](C)/C=C/C=C/C=C/1C [Compound A, 40-0-(2-hydroxyethyl)-rapamycin] | 10 | significantly suppresses | 10 | 1.9 (1.21-2.41) mg/kg p.o. | < 0.54 | significantly inhibits | significantly inhibits | significantly inhibits | 14.8 | 36.1 | 0.5 | 1.5 | –
2 | CO[C@H]1C[C@@H]2CC[C@@H](C)[C@@](O)(O2)C(=O)C(=O)N2CCCC[C@H]2C(=O)O[C@H]([C@H](C)C[C@@H]2CC[C@@H](O)[C@H](OC)C2)CC(=O)[C@H](C)/C=C(\C)[C@@H](O)[C@@H](OC)C(=O)[C@H](C)C[C@H](C)/C=C/C=C/C=C/1C [rapamycin, Rapamycin, reference compound] | – | – | – | – | – | – | – | – | – | – | – | – | 10
